Laboratory results taken from the NIST ThermoML archive (doi:10.1021/je2003012).
Numbers after ± are expanded uncertainties.

Assay: relative permittivity at various frequencies (dimensionless); wn = mass fraction of the nth substance listed
Details: Liquid, direct capacitance:P =

O=C=O [carbon dioxide] + CCO
Details	relative permittivity
303.4 K, 10000 kPa, w2 = 0.05	1.83 ± 0.14
303.4 K, 11400 kPa, w2 = 0.05	1.86 ± 0.14
303.4 K, 13200 kPa, w2 = 0.05	1.89 ± 0.14
303.4 K, 13600 kPa, w2 = 0.05	1.9 ± 0.14
303.4 K, 14800 kPa, w2 = 0.05	1.91 ± 0.14
303.4 K, 15300 kPa, w2 = 0.05	1.92 ± 0.14
303.4 K, 15800 kPa, w2 = 0.05	1.92 ± 0.14
303.4 K, 16000 kPa, w2 = 0.05	1.93 ± 0.14
303.4 K, 17500 kPa, w2 = 0.05	1.94 ± 0.14
303.4 K, 19000 kPa, w2 = 0.05	1.95 ± 0.14
303.4 K, 19200 kPa, w2 = 0.05	1.95 ± 0.14
303.4 K, 21000 kPa, w2 = 0.05	1.97 ± 0.14
303.4 K, 21300 kPa, w2 = 0.05	1.97 ± 0.14
303.4 K, 23000 kPa, w2 = 0.05	1.98 ± 0.14
303.4 K, 23300 kPa, w2 = 0.05	1.99 ± 0.14
303.4 K, 25100 kPa, w2 = 0.05	2 ± 0.14
303.4 K, 25400 kPa, w2 = 0.05	2 ± 0.14
303.4 K, 26700 kPa, w2 = 0.05	2.01 ± 0.14
303.4 K, 27200 kPa, w2 = 0.05	2.01 ± 0.14
303.4 K, 28900 kPa, w2 = 0.05	2.02 ± 0.14
303.4 K, 29600 kPa, w2 = 0.05	2.03 ± 0.14
303.7 K, 7200 kPa, w2 = 0.212	3.15 ± 0.15
303.7 K, 7900 kPa, w2 = 0.212	3.18 ± 0.15
303.7 K, 8800 kPa, w2 = 0.212	3.22 ± 0.15
303.7 K, 9800 kPa, w2 = 0.1	2.24 ± 0.14
303.7 K, 9800 kPa, w2 = 0.212	3.25 ± 0.15
303.7 K, 11000 kPa, w2 = 0.212	3.29 ± 0.15
303.7 K, 11300 kPa, w2 = 0.1	2.27 ± 0.14
303.7 K, 11400 kPa, w2 = 0.1	2.28 ± 0.14
303.7 K, 13000 kPa, w2 = 0.212	3.35 ± 0.15
303.7 K, 13100 kPa, w2 = 0.1	2.3 ± 0.14
303.7 K, 14000 kPa, w2 = 0.1	2.32 ± 0.14
303.7 K, 14900 kPa, w2 = 0.1	2.34 ± 0.14
303.7 K, 14900 kPa, w2 = 0.212	3.4 ± 0.15
303.7 K, 15000 kPa, w2 = 0.212	3.4 ± 0.15
303.7 K, 16000 kPa, w2 = 0.1	2.36 ± 0.14
303.7 K, 16500 kPa, w2 = 0.212	3.44 ± 0.15
303.7 K, 16700 kPa, w2 = 0.212	3.45 ± 0.15
303.7 K, 16900 kPa, w2 = 0.1	2.37 ± 0.14
303.7 K, 17300 kPa, w2 = 0.212	3.46 ± 0.15
303.7 K, 17800 kPa, w2 = 0.1	2.38 ± 0.14
303.7 K, 18000 kPa, w2 = 0.212	3.47 ± 0.15
303.7 K, 18800 kPa, w2 = 0.212	3.49 ± 0.15
303.7 K, 19100 kPa, w2 = 0.1	2.4 ± 0.14
303.7 K, 19900 kPa, w2 = 0.1	2.41 ± 0.14
303.7 K, 20200 kPa, w2 = 0.212	3.52 ± 0.15
303.7 K, 20400 kPa, w2 = 0.1	2.42 ± 0.14
303.7 K, 21400 kPa, w2 = 0.1	2.43 ± 0.14
303.7 K, 21600 kPa, w2 = 0.212	3.54 ± 0.14
303.7 K, 21800 kPa, w2 = 0.212	3.55 ± 0.14
303.7 K, 21900 kPa, w2 = 0.1	2.43 ± 0.14
303.7 K, 23100 kPa, w2 = 0.1	2.45 ± 0.14
303.7 K, 23300 kPa, w2 = 0.212	3.57 ± 0.14
303.7 K, 23900 kPa, w2 = 0.212	3.58 ± 0.14
303.7 K, 24100 kPa, w2 = 0.1	2.46 ± 0.14
303.7 K, 24200 kPa, w2 = 0.1	2.46 ± 0.14
303.7 K, 25300 kPa, w2 = 0.1	2.47 ± 0.14
303.7 K, 25400 kPa, w2 = 0.212	3.61 ± 0.14
303.7 K, 25500 kPa, w2 = 0.1	2.48 ± 0.14
303.7 K, 26200 kPa, w2 = 0.212	3.62 ± 0.14
303.7 K, 26500 kPa, w2 = 0.1	2.48 ± 0.14
303.7 K, 27200 kPa, w2 = 0.212	3.64 ± 0.14
303.7 K, 27400 kPa, w2 = 0.1	2.49 ± 0.14
303.7 K, 28000 kPa, w2 = 0.1	2.5 ± 0.14
303.7 K, 28400 kPa, w2 = 0.1	2.5 ± 0.14
303.7 K, 28400 kPa, w2 = 0.212	3.66 ± 0.14
303.7 K, 29400 kPa, w2 = 0.1	2.51 ± 0.14
303.7 K, 30200 kPa, w2 = 0.212	3.68 ± 0.14
304.9 K, 16100 kPa, w2 = 0.152	2.67 ± 0.15
304.9 K, 16800 kPa, w2 = 0.152	2.68 ± 0.14
304.9 K, 17300 kPa, w2 = 0.152	2.68 ± 0.15
304.9 K, 17800 kPa, w2 = 0.152	2.69 ± 0.14
304.9 K, 18800 kPa, w2 = 0.152	2.7 ± 0.14
304.9 K, 19400 kPa, w2 = 0.152	2.72 ± 0.14
304.9 K, 20100 kPa, w2 = 0.152	2.73 ± 0.14
304.9 K, 20800 kPa, w2 = 0.152	2.74 ± 0.14
304.9 K, 21900 kPa, w2 = 0.152	2.75 ± 0.14
304.9 K, 22800 kPa, w2 = 0.152	2.76 ± 0.14
304.9 K, 23700 kPa, w2 = 0.152	2.77 ± 0.15
304.9 K, 24300 kPa, w2 = 0.152	2.79 ± 0.14
304.9 K, 24700 kPa, w2 = 0.152	2.78 ± 0.14
304.9 K, 25500 kPa, w2 = 0.152	2.79 ± 0.14
304.9 K, 26400 kPa, w2 = 0.152	2.81 ± 0.14
304.9 K, 26500 kPa, w2 = 0.152	2.81 ± 0.14
304.9 K, 27200 kPa, w2 = 0.152	2.82 ± 0.14
304.9 K, 28200 kPa, w2 = 0.152	2.83 ± 0.14
304.9 K, 29100 kPa, w2 = 0.152	2.84 ± 0.14
